Results: the supplement of paper PMC13380429

Assays:
Details in all cases: 72 h
[1] = test system: HepG2; experiment: relative viability EC50 (midpoint between 100% and the lowest measured viability); higher = less toxic
[2] = test system: Calu-3; experiment: as above
[3] = test system: U2OS; experiment: as above
[4] = test system: Vero E6; experiment: as above
[5] = test system: Caco-2; experiment: as above
[6] = test system: HepG2; experiment: drug sensitivity score (DSS) for viability; higher = more toxic; extreme values may be limits of the assay
[7] = test system: Calu-3; experiment: as above
[8] = test system: U2OS; experiment: as above
[9] = test system: Vero E6; experiment: as above
[10] = test system: Caco-2; experiment: as above
[11] = test system: HepG2; experiment: cell viability relative to DMSO; higher = less toxic
[12] = test system: Calu-3; experiment: as above
[13] = test system: U2OS; experiment: as above
[14] = test system: Vero E6; experiment: as above
[15] = test system: Caco-2; experiment: as above

| Compound | relative viability EC50 [1] [µM] | relative viability EC50 [2] [µM] | relative viability EC50 [3] [µM] | relative viability EC50 [4] [µM] | relative viability EC50 [5] [µM] | drug sensitivity score [6] | drug sensitivity score [7] | drug sensitivity score [8] | drug sensitivity score [9] | drug sensitivity score [10] | cell viability ([11]; 1 nM) [%] | cell viability ([11]; 10 nM) [%] | cell viability ([11]; 100 nM) [%] | cell viability ([11]; 1000 nM) [%] | cell viability ([11]; 10000 nM) [%] | cell viability ([12]; 1 nM) [%] | cell viability ([12]; 10 nM) [%] | cell viability ([12]; 100 nM) [%] | cell viability ([12]; 1000 nM) [%] | cell viability ([12]; 10000 nM) [%] | cell viability ([13]; 1 nM) [%] | cell viability ([13]; 10 nM) [%] | cell viability ([13]; 100 nM) [%] | cell viability ([13]; 1000 nM) [%] | cell viability ([13]; 10000 nM) [%] | cell viability ([14]; 1 nM) [%] | cell viability ([14]; 10 nM) [%] | cell viability ([14]; 100 nM) [%] | cell viability ([14]; 1000 nM) [%] | cell viability ([14]; 10000 nM) [%] | cell viability ([15]; 1 nM) [%] | cell viability ([15]; 10 nM) [%] | cell viability ([15]; 100 nM) [%] | cell viability ([15]; 1000 nM) [%] | cell viability ([15]; 10000 nM) [%] |
| --- | --- | --- | --- | --- | --- | --- | --- | --- | --- | --- | --- | --- | --- | --- | --- | --- | --- | --- | --- | --- | --- | --- | --- | --- | --- | --- | --- | --- | --- | --- | --- | --- | --- | --- | --- |
| COc1ccc(Cl)cc1NC(=O)Nc1cc(C)nc2ccccc12 [PQ-401] | > 10 | > 10 | > 10 | > 10 | > 10 | 0.4 | 0 | 0.1 | 0 | 1.1 | 99.1 | 106 | 92 | 103 | 80.3 | 106 | 93.4 | 107 | 94.9 | 100 | 98.2 | 98.5 | 100 | 101 | 86.1 | 96.4 | 95.3 | 92.8 | 96.4 | 90.8 | 93.8 | 97 | 108 | 97.6 | 77.8 |
| O=C(Nc1ccc(Cl)cc1)Nc1cccc(-c2cccc(N3CCCC3)n2)c1 [PSNCBAM-1] | > 10 | > 10 | > 10 | > 10 | > 10 | 0 | 0 | 0 | 0 | 0 | 101 | 110 | 102 | 102 | 99.1 | 102 | 98.9 | 95 | 97.9 | 104 | 98.8 | 102 | 96.6 | 98.7 | 102 | 108 | 96.7 | 102 | 105 | 91.8 | 98.3 | 91.9 | 96.2 | 93.7 | 99.4 |
| CC(C)N(CCCNC(=O)Nc1ccc(C(C)(C)C)cc1)C[C@H]1O[C@@H](n2cc(Br)c3c(N)ncnc32)[C@H](O)[C@@H]1O [SGC-0946] | > 10 | > 10 | > 10 | > 10 | > 10 | 0 | 0 | 0 | 0 | 0 | 92.1 | 96.6 | 106 | 104 | 96.6 | 96 | 106 | 93.9 | 101 | 95.2 | 92.3 | 102 | 99.7 | 112 | 107 | 94.4 | 95.7 | 93 | 97.6 | 110 | 91.2 | 98.7 | 101 | 103 | 101 |
| C[Se]C[C@H](N)C(=O)O [Se-methylselenocysteine] | > 10 | > 10 | > 10 | > 10 | > 10 | 0 | 0 | 0 | 0 | 0 | 101 | 101 | 104 | 93 | 108 | 108 | 113 | 98.1 | 109 | 96.4 | 92.4 | 102 | 95.5 | 99.7 | 97.7 | 104 | 100 | 99.2 | 102 | 101 | 94.3 | 99.1 | 97.2 | 102 | 91.4 |
| Clc1ccccc1C(c1ccccc1)(c1ccccc1)n1cccn1 [TRAM-34] | > 10 | > 10 | > 10 | > 10 | > 10 | 0 | 0 | 0 | 0 | 0 | 107 | 96.5 | 93.5 | 98.4 | 104 | 104 | 104 | 106 | 93.4 | 103 | 97.6 | 98.4 | 101 | 99.2 | 99 | 104 | 111 | 97.6 | 104 | 98.9 | 95.8 | 89 | 99 | 99 | 90.1 |
| N#CC(c1ccccc1)(c1ccccc1)c1ccccc1Cl [TRAM-39] | > 10 | > 10 | > 10 | > 10 | > 10 | 0 | 0 | 0 | 0 | 0 | 105 | 102 | 93.7 | 92.7 | 103 | 93.8 | 93 | 107 | 106 | 92.9 | 101 | 96.5 | 95.7 | 97.3 | 94.3 | 103 | 97.8 | 97.8 | 95.2 | 98.5 | 94.3 | 93.2 | 90.8 | 96.9 | 92.6 |
| CCOC(=O)c1ccc(-c2ccc(OC(=O)N(C)Cc3cccc(-c4ccncc4)c3)cc2)cc1 [WWL-113] | 3.7 | > 10 | > 10 | > 10 | > 10 | 2.9 | 0 | 0 | 0 | 0 | 100 | 106 | 96.5 | 107 | 38.1 | 108 | 93.6 | 108 | 99.1 | 106 | 104 | 97.3 | 98.9 | 95.9 | 97.8 | 94.7 | 98.4 | 92.5 | 99.6 | 91.4 | 97.4 | 102 | 105 | 96.5 | 92.8 |
